From patent publication US8044069B2, “Compounds as calcium channel blockers” (Abbott Laboratories, priority 2008, dated 2011) come the findings set out here.

human Cav2.2, sequence (Q00975 whole entry): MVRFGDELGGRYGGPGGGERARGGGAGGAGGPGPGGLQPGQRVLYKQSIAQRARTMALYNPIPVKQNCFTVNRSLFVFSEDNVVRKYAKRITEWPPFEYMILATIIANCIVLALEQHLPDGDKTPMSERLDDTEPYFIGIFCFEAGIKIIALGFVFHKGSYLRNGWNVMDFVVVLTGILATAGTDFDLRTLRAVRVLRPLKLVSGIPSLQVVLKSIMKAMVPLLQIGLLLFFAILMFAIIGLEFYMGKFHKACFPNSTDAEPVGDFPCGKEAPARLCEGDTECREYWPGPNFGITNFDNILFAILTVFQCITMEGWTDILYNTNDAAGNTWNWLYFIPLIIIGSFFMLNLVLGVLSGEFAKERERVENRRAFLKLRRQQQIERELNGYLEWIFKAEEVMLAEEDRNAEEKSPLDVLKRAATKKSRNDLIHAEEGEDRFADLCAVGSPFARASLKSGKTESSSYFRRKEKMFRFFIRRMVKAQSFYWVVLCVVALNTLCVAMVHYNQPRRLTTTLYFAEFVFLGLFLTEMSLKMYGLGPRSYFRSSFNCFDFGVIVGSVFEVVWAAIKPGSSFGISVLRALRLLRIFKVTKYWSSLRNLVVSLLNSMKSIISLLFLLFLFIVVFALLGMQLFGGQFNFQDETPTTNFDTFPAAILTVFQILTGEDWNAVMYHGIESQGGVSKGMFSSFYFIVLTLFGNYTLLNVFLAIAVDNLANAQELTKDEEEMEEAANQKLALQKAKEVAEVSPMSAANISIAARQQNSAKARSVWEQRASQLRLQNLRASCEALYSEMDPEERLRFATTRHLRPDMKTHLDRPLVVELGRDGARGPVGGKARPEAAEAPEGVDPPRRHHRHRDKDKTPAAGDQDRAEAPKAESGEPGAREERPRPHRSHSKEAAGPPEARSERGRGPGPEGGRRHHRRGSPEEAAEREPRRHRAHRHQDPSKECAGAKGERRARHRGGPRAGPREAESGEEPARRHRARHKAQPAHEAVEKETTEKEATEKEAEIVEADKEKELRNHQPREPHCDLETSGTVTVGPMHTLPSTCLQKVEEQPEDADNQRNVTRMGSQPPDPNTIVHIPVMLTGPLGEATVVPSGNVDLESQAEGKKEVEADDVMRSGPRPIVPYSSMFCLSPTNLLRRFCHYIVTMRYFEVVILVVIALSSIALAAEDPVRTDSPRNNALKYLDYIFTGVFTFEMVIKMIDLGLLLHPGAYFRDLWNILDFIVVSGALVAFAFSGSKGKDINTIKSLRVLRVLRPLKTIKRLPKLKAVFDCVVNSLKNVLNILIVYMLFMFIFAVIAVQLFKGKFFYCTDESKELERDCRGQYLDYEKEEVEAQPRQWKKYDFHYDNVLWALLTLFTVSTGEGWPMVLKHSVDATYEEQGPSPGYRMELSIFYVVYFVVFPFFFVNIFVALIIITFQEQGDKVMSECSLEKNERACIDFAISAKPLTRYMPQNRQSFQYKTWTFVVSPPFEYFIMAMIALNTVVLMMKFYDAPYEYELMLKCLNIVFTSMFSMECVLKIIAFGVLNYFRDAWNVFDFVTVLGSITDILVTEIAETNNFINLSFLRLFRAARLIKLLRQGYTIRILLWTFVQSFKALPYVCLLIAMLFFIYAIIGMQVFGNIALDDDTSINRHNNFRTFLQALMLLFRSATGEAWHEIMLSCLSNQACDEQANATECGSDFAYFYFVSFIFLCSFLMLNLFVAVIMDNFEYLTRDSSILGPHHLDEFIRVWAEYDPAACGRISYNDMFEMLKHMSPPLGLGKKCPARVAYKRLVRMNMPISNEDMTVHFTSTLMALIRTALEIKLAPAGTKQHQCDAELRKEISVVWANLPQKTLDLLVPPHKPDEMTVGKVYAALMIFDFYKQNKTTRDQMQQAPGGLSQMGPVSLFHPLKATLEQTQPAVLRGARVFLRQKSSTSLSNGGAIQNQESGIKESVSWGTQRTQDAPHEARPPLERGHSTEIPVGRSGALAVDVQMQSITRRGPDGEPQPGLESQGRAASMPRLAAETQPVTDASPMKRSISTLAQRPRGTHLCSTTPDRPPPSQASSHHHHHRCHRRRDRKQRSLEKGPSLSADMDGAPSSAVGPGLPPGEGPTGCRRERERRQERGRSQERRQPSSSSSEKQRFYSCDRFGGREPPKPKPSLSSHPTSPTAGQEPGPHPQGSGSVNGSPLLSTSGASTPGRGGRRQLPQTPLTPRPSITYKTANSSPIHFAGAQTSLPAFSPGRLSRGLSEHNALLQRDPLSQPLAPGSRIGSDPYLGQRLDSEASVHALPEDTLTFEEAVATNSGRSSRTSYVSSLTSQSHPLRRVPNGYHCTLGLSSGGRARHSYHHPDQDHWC
human Cav2.2, sequence (P54289 25-951 partner limits assumed): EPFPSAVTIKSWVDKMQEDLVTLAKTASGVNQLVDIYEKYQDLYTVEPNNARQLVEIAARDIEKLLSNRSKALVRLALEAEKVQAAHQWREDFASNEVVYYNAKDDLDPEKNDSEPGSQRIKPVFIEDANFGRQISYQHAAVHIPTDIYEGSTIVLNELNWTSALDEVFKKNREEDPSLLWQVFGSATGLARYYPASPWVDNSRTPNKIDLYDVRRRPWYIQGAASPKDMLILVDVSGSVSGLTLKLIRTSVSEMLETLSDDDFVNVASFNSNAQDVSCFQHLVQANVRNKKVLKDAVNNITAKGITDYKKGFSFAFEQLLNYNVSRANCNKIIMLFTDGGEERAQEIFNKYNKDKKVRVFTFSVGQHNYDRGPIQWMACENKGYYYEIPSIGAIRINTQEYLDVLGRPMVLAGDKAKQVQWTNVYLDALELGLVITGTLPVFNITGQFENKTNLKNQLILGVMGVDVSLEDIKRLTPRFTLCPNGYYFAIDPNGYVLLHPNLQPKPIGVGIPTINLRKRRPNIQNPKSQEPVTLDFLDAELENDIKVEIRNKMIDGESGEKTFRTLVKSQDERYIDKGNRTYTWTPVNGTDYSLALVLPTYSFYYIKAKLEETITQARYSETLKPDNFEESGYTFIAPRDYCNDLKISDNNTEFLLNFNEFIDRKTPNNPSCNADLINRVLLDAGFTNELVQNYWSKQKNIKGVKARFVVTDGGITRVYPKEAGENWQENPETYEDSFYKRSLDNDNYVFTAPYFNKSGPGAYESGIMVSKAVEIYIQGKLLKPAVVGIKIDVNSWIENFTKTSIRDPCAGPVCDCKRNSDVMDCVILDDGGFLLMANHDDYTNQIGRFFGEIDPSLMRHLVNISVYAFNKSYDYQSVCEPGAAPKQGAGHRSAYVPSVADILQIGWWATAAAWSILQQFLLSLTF
human Cav2.2, sequence (P54289 952-1103 partner limits assumed): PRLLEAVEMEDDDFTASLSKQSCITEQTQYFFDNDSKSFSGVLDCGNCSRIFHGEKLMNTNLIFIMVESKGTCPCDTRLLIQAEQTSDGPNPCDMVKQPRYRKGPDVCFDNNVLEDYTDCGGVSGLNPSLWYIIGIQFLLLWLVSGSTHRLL
human Cav2.2, sequence (P54284 whole entry partner): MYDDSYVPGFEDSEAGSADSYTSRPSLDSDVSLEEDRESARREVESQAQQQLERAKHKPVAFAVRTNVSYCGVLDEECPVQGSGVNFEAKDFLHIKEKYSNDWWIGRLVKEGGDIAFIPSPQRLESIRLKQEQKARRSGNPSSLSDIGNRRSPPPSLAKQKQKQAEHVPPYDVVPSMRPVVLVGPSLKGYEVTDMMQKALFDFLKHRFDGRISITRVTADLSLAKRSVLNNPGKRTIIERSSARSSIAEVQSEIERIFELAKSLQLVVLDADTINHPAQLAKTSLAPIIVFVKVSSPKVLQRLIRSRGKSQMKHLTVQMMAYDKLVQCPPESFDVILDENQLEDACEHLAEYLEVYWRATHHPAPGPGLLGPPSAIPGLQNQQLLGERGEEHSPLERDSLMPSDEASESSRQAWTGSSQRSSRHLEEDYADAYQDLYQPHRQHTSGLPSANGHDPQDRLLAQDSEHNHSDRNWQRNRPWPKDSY

In this assay the target is human Cav2.2 (Homo sapiens, UniProt Q00975). Briefly: Assessment of calcium channel activity using FLIPR (Ca2+ influx in IMR32 cells). It is filed as cell-based. The conditions noted are these: IMR32 cells endogenously expressing human Cav2.2; 60 minute pre-incubation; 2 μM nifedipine; depolarized with 80 mM KCl, 5 mM CaCl2. The protocol: (i) In Vitro Methods—Assessment of Calcium Channel Activity Using FLIPR:
The IMR32 cells were maintained in MEM media containing 10% (v/v) FBS, 1% (v/v) antibiotic/antimitotic, 1% (v/v) sodium pyruvate and 1% (v/v) MEM NEAA. Following dissociation in 0.05% (v/v) trypsin/EDTA, cells were seeded into black 1×96-well plates (Corning Cellbind) at a density of 1-1.2×10^5 cells/well and incubated in the maintenance media above for 48 hours at 37° C. […] After dye loading and a subsequent 60 minute pre-incubation with compounds (full log dilutions from 10 μM to 0.1 nM) in the presence of 1.3 mM CaCl2 and 2 μM nifedipine to block endogenous L-type channels, the external Ca^2+ concentration was increased to 5 mM CaCl2 and the cells concomitantly depolarized with 80 mM KCl to assay channel activity. To determine the IC50 values, the percent inhibition of the compound at each concentration was determined relative to the activity in the absence of inhibitor, and data was fitted using non-linear regression sigmoidal dose response curve analysis with GraphPad Prism®.
Usually IC50 stands for the midpoint of a concentration-inhibition curve. For `COc1ccc(C2(c3ccc(OC)cc3)CCN(CCN(C)CC(O)COc3cccc4ncccc34)C2=O)cc1` (centres unmarked) [Example 106, 1-{2-[[2-hydroxy-3-(quinolin-5-yloxy)propyl](methyl)amino]ethyl}-3,3-bis(4-methoxyphenyl)pyrrolidin-2-one], the IC50 was 0.73 µM.

For `O=C(CN1CCC(c2ccccc2)(c2ccccc2)C1=O)N1CCC(C(O)(c2ccccc2)c2ccccc2)CC1` [Example 34, 1-(2-{4-[hydroxy(diphenyl)methyl]piperidin-1-yl}-2-oxoethyl)-3,3-diphenylpyrrolidin-2-one], the IC50 was 0.96 µM.

Take `O=C(CN1CCC(c2ccc(C(F)(F)F)cc2)C1=O)N1Cc2ccc(C(F)(F)F)cc2C1` (centres unmarked) [Example 267, 1-{2-oxo-2-[5-(trifluoromethyl)-1,3-dihydro-2H-isoindol-2-yl]ethyl}-3-[4-(trifluoromethyl)phenyl]pyrrolidin-2-one]: the IC50 turned out to be 7.35 µM.

In the case of `O=C(CN1CCC(c2ccc(F)cc2)(c2ccc(F)cc2)C1=O)Nc1ccc(C(F)(F)F)cn1` [Example 217, 2-[3,3-bis(4-fluorophenyl)-2-oxopyrrolidin-1-yl]-N-[5-(trifluoromethyl)pyridin-2-yl]acetamide], the IC50 came to 2.62 µM.

Turning to `O=C(CN1CCC(c2ccc(F)cc2)(c2ccc(F)cc2)C1=O)N1CCC(c2ccccc2)(c2ccccc2)C1` [Example 61, 1-[2-(3,3-diphenylpyrrolidin-1-yl)-2-oxoethyl]-3,3-bis(4-fluorophenyl)pyrrolidin-2-one], the IC50 came out at 1.31 µM.

As for `CC1(C)C(=O)N(CCN2CCC(c3ccccc3)(c3ccccc3)C2=O)CCN1Cc1cccs1` [Example 65, 3,3-dimethyl-1-[2-(2-oxo-3,3-diphenylpyrrolidin-1-yl)ethyl]-4-(thien-2-ylmethyl)piperazin-2-one], the IC50 turned out to be 1.04 µM.

As for `O=C(CN1CCCC(c2ccccc2)(c2ccccc2)C1=O)N1CCN(Cc2ccc(C(F)(F)F)cc2)CC1` [Example 80, 1-(2-oxo-2-{4-[4-(trifluoromethyl)benzyl]piperazin-1-yl}ethyl)-3,3-diphenylpiperidin-2-one], the half-maximal inhibitory concentration (IC50) is 1.38 µM.

As for `O=C1CN(C(c2ccccc2)c2ccccc2)CCN1CCN1CCC(c2ccccc2)(c2ccccc2)C1=O` [Example 64, 4-benzhydryl-1-[2-(2-oxo-3,3-diphenylpyrrolidin-1-yl)ethyl]piperazin-2-one], the IC50 stood at 2.09 µM.

As to `O=C(CN1CCCC(c2ccccc2)(c2ccccc2)C1=O)N1CCc2ccc(C(F)(F)F)cc2C1` [Example 261, 1-{2-oxo-2-[7-(trifluoromethyl)-3,4-dihydroisoquinolin-2(1H)-yl]ethyl}-3,3-diphenylpiperidin-2-one], the IC50 came out at 4.44 µM.

As for `O=C(CN1CCC(c2ccc(F)cc2)(c2ccc(F)cc2)C1=O)N1CCC(C(O)(c2ccc(F)cc2)c2ccc(F)cc2)CC1` [Example 271, 1-(2-{4-[bis(4-fluorophenyl)(hydroxy)methyl]piperidin-1-yl}-2-oxoethyl)-3,3-bis(4-fluorophenyl)pyrrolidin-2-one], the IC50 was 2.57 µM.

Consider `O=C1N(Cc2nc(-c3ccc(C(F)(F)F)nc3)no2)CCC1(c1ccccc1)c1ccccc1` [Example 211, 3,3-diphenyl-1-({3-[6-(trifluoromethyl)pyridin-3-yl]-1,2,4-oxadiazol-5-yl}methyl)pyrrolidin-2-one], for which the IC50 was 3.15 µM.

As to `O=C(CN1CCCC(c2ccccc2)(c2ccccc2)C1=O)N1CCC(=NOCc2ccccc2)CC1` [Example 163, 1-(2-{4-[(benzyloxy)imino]piperidin-1-yl}-2-oxoethyl)-3,3-diphenylpiperidin-2-one], the 50% inhibitory concentration (IC50) was 3.79 µM.

As to `O=C(CN1CCC(c2ccccc2)(c2ccccc2)C1=O)N1CCN(Cc2c(Cl)cccc2Cl)CC1` [Example 36, 1-{2-[4-(2,6-dichlorobenzyl)piperazin-1-yl]-2-oxoethyl}-3,3-diphenylpyrrolidin-2-one], the IC50 was 0.9 µM.

For `CC(CNC(=O)CN1CCC(c2ccccc2)(c2ccccc2)C1=O)(c1ccccc1)c1ccccc1` [Example 16, N-(2,2-diphenylpropyl)-2-(2-oxo-3,3-diphenylpyrrolidin-1-yl)acetamide], the IC50 was 0.9 µM.
